Here are results for five compounds from PMC6009881, “New sulfurated derivatives of cinnamic acids and rosmaricine as inhibitors of STAT3 and NF-κB transcription factors” (Journal of Enzyme Inhibition and Medicinal Chemistry, 2017).

Each structure is given as a SMILES string. Read-outs that look alike come from different tables or passages of the source.

Data set [1] deals with T1, STAT3-SH2 domain (Homo sapiens, UniProt P40763). The data set can be described thus: STAT AlphaScreen-based assay (STAT3). The class given is binding. As to conditions: AlphaScreen assay; for IC50: read-out: STAT3 IC50 ±SD; for inhibition at 30 µM: read-out: STAT3 % inhibition ± SD at 30 μM. (Alpha assays give light when donor and acceptor beads are brought close together.)
T1 sequence (P40763 whole entry, the tested form may be a part): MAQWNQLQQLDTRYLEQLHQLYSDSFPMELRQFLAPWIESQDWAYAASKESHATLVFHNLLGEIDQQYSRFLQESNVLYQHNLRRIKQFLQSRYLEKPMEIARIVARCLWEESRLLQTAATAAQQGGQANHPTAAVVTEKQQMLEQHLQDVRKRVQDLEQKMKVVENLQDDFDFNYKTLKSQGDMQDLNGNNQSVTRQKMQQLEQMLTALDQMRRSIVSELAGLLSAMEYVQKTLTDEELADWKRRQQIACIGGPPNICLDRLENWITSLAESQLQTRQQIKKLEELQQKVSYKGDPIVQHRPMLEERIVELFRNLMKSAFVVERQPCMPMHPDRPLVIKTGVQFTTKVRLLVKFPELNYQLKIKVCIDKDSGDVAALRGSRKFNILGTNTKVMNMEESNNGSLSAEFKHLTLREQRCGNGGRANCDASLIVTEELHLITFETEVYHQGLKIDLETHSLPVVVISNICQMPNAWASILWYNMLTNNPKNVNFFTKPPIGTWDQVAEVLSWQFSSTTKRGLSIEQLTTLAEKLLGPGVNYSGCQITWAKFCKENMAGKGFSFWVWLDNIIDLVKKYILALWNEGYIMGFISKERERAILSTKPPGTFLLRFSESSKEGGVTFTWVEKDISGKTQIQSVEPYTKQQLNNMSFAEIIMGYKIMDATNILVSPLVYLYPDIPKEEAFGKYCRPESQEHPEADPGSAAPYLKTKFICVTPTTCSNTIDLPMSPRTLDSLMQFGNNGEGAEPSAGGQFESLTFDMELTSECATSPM

The test system of the next data set is STAT3. To be noted: in some settings; read-out: STAT3 inhibition IC50; cited from earlier work.
A further data set has as its target T2, SH2-domain of STAT1 (Homo sapiens, UniProt P42224).
T2 sequence (P42224 1-750): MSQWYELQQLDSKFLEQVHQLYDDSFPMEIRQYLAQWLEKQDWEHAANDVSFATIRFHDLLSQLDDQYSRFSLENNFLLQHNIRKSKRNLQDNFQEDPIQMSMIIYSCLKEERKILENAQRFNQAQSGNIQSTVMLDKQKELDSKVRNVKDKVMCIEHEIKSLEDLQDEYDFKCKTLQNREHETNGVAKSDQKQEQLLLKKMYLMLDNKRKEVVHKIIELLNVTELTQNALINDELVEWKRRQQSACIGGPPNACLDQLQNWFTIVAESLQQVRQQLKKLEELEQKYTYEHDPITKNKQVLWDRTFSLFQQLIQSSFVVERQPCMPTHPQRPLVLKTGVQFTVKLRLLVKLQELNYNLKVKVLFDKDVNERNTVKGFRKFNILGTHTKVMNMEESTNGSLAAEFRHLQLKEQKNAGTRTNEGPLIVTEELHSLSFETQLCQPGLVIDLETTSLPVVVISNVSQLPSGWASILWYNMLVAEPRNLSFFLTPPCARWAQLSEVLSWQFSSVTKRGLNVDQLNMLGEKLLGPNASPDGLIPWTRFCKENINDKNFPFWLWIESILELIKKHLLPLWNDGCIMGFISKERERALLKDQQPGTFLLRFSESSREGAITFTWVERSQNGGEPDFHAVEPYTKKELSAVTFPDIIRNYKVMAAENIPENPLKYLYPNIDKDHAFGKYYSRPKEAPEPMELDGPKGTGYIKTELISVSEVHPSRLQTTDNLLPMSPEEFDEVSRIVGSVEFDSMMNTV
The data set can be described thus: STAT AlphaScreen-based assay (STAT1 selectivity). The class given is binding. As to conditions: for inhibition at 30 µM: read-out: STAT1 % inhibition ± SD at 30 μM, 30 μM; for IC50: read-out: STAT1 IC50 ±SD. On the procedure: STAT3 inhibitory activity of the described compounds was tested by the AlphaScreen-based assay to evaluate the potential inhibition of the interaction between STAT3-SH2 domain and pTyr-containing peptides according to the previously reported procedure. For the most interesting compounds, selectivity tests versus STAT1 were performed.
The new sulfurated-drug hybrids, together with their parent compounds have been submitted to the AlphaScreen-based assay, to investigate their ability to bind STAT3 directly, through the evaluation of the inhibition of the binding of SH2-containing proteins to their correspondent phosphopeptides, the physiological ligands. […] Since AlphaScreen is a cell-free assay, not always there is a correspondence between the potency of STAT3 inhibition and cytotoxicity, probably due to not optimal physicochemical properties of the tested compounds, such as solubility and chemical stability in the culture medium and cell permeation.

Data set [2] deals with STAT3 reporter activity in HeLa cells. The data set can be described thus: STAT3 luciferase reporter gene assay. The class given is cell-based. As to conditions: Homo sapiens, 2 h pretreatment, oncostatin M 10 ng/ml 4 h, read-out: STAT3 reporter assay (HeLa) IC50 ±SD. The procedure: STAT3 reporter HeLa stable cell lines (Signosis Inc, Santa Clara, CA) were incubated in a 96-well microplate for 24 h. Cells were pretreated with test compounds for 2 h, and 10 ng/ml (w/v) of oncostatin M were applied and incubated for 4 h. Cells were washed with medium not supplemented with phenol red, and Steady-Glo® reagent (Promega, Madison, WI) was applied. After 15 min incubation, the signals were detected by ARVO Light 1420 (PerkinElmer Life Sciences, Waltham, MA). The relative signal intensity was calculated in each well as the ratio for the mean signal of vehicle.
(In a reporter assay the amount or activity of a reporter protein is the signal.)

For data set [3], the system named is NF-κB promoter activity in HCT-116 cells. As to the kind of experiment: Luciferase reported NF-κB promoter activity assay. It counts as cell-based. To be noted: Homo sapiens, 2 h pre-treatment, TNF-α 10 ng/ml, NA = not active up to 100 μM, read-out: NF-κB promoter assay (HCT-116) IC50 ±SD. On the procedure: To measure the NF-κB promoter activity, HCT-116 cells were seeded in 100 mm dish and transiently transfected with 6 μg of DNA (NF-κB plasmid, containing luciferase reporter gene[57] with turbofect reagent (Carlo Erba Reagents). After 24 h, cells were seeded in 48-well plates (40.000 cells per well). On the next day, cells were incubated with our compounds for 2 h (pre-treatment) and then TNF-α was added in every well at (10 ng/ml). After 5–6 h, luciferase activity was measured by using Neolite reagent (PerkinElmer Life Sciences, Waltham, MA) according to the manufacturer’s instructions.

Another data set has as its system HCT-116 cells. The data set can be described thus: MTT assay, cytotoxicity on HCT-116. The class given is cell-based, human. As to conditions: for IC50 at 48 h: human, HCT-116 cells. The procedure:
Following the same protocol used for previous cytotoxicity assays by N. Ferri[55], cells were seeded in 48-well plate (40.000 cells/well) and, after 24 h, they were incubated with different concentrations of our compounds for 48 h.
The determination of the conversion of MTT (3-(4,5-dimethyl-2-thiazolyl)-2,5-diphenyl-2H-tetrazolium bromide) to formazan was determined by using a commercially available kit (Millipore, Billerica, MA), according to the manufacturer’s instructions.

Data set [4] concerns lymphocytic leukemia P388. Further details: method as in PMID 8003178. As to conditions: injected i.p. in mice, 24 h after the tumor implants; data from National Cancer Institute; cited from earlier work.
In data set [5] the test system is human smooth muscle cells (hSMC). The data set can be described thus: Cytotoxicity versus normal human smooth muscle cells. It counts as cell-based.
For data set [6], the system named is MCF-7 (hormone sensitive breast cancer) cells. The data set can be described thus: Cytotoxicity against MCF-7 cells. It counts as cell-based. As to conditions: in comparison to HCT-116.
Data set [7] has as its target T1, STAT3-SH2 domain. Further details: method as in PMID 28097912. To be noted: maximum tested concentration 30 μM; read-out: STAT3-SH2 domain binding IC50 (AlphaScreen), previously described hybrids; cited from earlier work.
For data set [8], the system named is different tumoral cell lines. Further details: method as in PMID 18266964, PMID 22212895. To be noted: cited from earlier work.
Data set [9] has as its system PC3 subcutaneous xenografts. Also noted: method as in PMID 18266964. As to conditions: in vivo; cited from earlier work.
Setting [10] is: MTT assay, 48 h, NA = not active up to 100 μM, read-out: Cytotoxicity (HCT-116) IC50 ±SD.

As usually defined, the IC50 is the point on the concentration scale where inhibition reaches its midpoint. `O=C(O)/C=C/c1ccc(O)c(O)c1` [Compound 19, caffeic acid, reference compound]: the results for the half-inhibitory concentration (IC50) on STAT3-SH2 domain [1] and in the data set with STAT3 were > 30 µM and 70 to 100 µM, respectively.
The inhibition is the share of the control response that was lost under treatment. Broadly, the melting point is the temperature of the solid-liquid transition. The compound `CC(C)c1cc2c(c(O)c1O)C13CCCC(C)(C)C1C(OC3=O)C2N` (centres unmarked) [Compound 30, rosmaricine] yielded a melting point of 198.2 to 202.5 °C. Moreover, at STAT3-SH2 domain [1], the IC50 worked out at 1.9 ± 0.1 µM and the inhibition at 30 µM was 99.7%. On SH2-domain of STAT1, the inhibition at 30 µM came to 91.8% and the IC50 was 10 ± 0.6 µM. Moreover, the IC50 in [2] was found to be 42.4 ± 2.4 µM. For the same compound, the IC50 in [3] amounted to 43.4 ± 6.9 µM. In the data set with HCT-116 cells (setting [10]), the IC50 amounted to 65.2 ± 2.3 µM and the IC50 at 48 h stood at 65 µM. The “activity against lymphocytic leukemia P388” value in data set [4] was “inactive or endowed with borderline activity”.
Compound `C=CCSSCCC(=O)NC1c2cc(C(C)C)c(O)c(O)c2C23CCCC(C)(C)C2C1OC3=O` (centres unmarked) [Compound 32, N-[3-(allyldisulfanyl)propanoyl]rosmaricine] yielded a melting point of 206.9 to 209.2 °C. On STAT3-SH2 domain [1], the IC50 was determined as 2.3 ± 0.4 µM and the inhibition at 30 µM was 99.5%. Moreover, at SH2-domain of STAT1, the inhibition at 30 µM worked out at 23.9 ± 0.4% and the IC50 was > 30 µM. Besides, in [2], the IC50 was 37 ± 0.8 µM. The IC50 in data set [3] was 13 ± 0.7 µM. Moreover, the “fold increase of antiproliferative activity” value with HCT-116 cells (HCT-116, in comparison to rosmaricine) is 19 fold. The IC50 at 48 h in the data set on HCT-116 cells (setting [10]) was 3.5 ± 2.8 µM. Moreover, the “selectivity index (hSMC versus HCT-116)” value in [5] worked out at 6. Besides, the midpoint of inhibition in [5] (Homo sapiens, HSMC), the IC50, lay at 21.2 µM. The “cytotoxicity against MCF-7 cells” value in data set [6] is “confirmed, even at lower level”.
As for `CC(C)c1cc2c(c(O)c1O)C13CCCC(C)(C)C1C(OC3=O)C2NC(=O)c1ccc(-c2cssc2=S)cc1` (centres unmarked) [Compound 33, N-[4-(3-thioxo-3H-1,2-dithiol-4-yl)benzoyl]rosmaricine], the melting point fell in the range of 243.2 to 249.7 °C. For the same compound, on STAT3-SH2 domain [1], the IC50 stood at 2.9 ± 0.2 µM and the inhibition at 30 µM was found to be 94.5 ± 0.4%. At SH2-domain of STAT1, the inhibition at 30 µM is 58.8 ± 5.9% and the IC50 is 19.7 ± 4 µM. Besides, the IC50 in [2] is > 100 µM. Also, in data set [3], the IC50 worked out at 73 ± 13.2 µM. In the data set with HCT-116 cells (setting [10]), the IC50 at 48 h was 65.4 ± 3.9 µM.
As for `CCCC(CCC)C(=O)OCCSS(C)(=O)=O` [a, 2-((methylsulfonyl)thio)ethyl 2-propylpentanoate], the IC50 at STAT3-SH2 domain [7] was 0.7 µM. Moreover, in data set [8], the “in vitro antiproliferative activity” value is “good antiproliferative activity in micromolar concentrations”. Besides, the “growth of PC3 in subcutaneous xenografts” value in data set [9] was “inhibited the growth of PC3 in subcutaneous xenografts”.
